Results as given in US11084790B2, “Insoluble complex or solvate thereof, pharmaceutical composition and use thereof” (Fruithy Holdings Limited, priority 2017, dated 2021).
Values after ≈ are worked out from the molar mass of the structure shown.

Assay: Test on the solubility in a simulated body fluid
Type: physicochemical
Settings: for Compound concentration: Bupivacaine / Compound concentration: Pamoic acid / solubility: 0.01 M PBS pH 7.4, 37° C.
Procedure: Test on the Solubility in a Simulated Body Fluid
The concentration of the drug dissolved in the PBS buffered solution was determined with an HPLC-a method.

SMILES | Compound concentration: Bupivacaine (5 min) | Compound concentration: Pamoic acid (5 min) | Compound concentration: Bupivacaine (15 min) | Compound concentration: Pamoic acid (15 min) | Compound concentration: Bupivacaine (30 min) | Compound concentration: Pamoic acid (30 min) | Compound concentration: Bupivacaine (1 h) | Compound concentration: Pamoic acid (1 h) | Compound concentration: Bupivacaine (2 h) | Compound concentration: Pamoic acid (2 h) | Compound concentration: Bupivacaine (6 h) | Compound concentration: Pamoic acid (6 h) | Compound concentration: Bupivacaine (24 h) | Compound concentration: Pamoic acid (24 h) | stability of the suspension (ratio between acid radical and basic group) (simulated body fluid) | solubility (simulated body fluid) | solubility at 24 h (phosphate buffered saline (simulated body fluid), 37 °C, aqueous buffer, thermodynamic from solid, simulated body fluid, 0.01 M PBS at pH 7.4, read-out: Saturated solubility) | Saturated solubility (simulated body fluid, 0.01 M PBS at pH 7.4)
CCCCN1CCCCC1C(=O)Nc1c(C)cccc1C.CCCCN1CCCCC1C(=O)Nc1c(C)cccc1C.O=C(O)c1cc2ccccc2c(Cc2c(O)c(C(=O)O)cc3ccccc23)c1O [Preparation Example 29, bis(bupivacaine) pamoate] | 159.8 µM | 78.2 µM | 196.9 µM | 97.3 µM | 241.5 µM | 122.1 µM | 269.9 µM | 119.5 µM | 271.3 µM | 140 µM | 275.1 µM | 145 µM | 305 µM | 151.6 µM | stable | about 0.3 mM | – | –
CCCCN1CCCCC1C(=O)Nc1c(C)cccc1C.CCCCN1CCCCC1C(=O)Nc1c(C)cccc1C.O=C(O)c1cc2ccccc2c(Cc2c(O)c(C(=O)O)cc3ccccc23)c1O [Preparation Example 30, bis(bupivacaine) pamoate] | 142.3 µM | 75.7 µM | 218.8 µM | 111.6 µM | 233.7 µM | 128.5 µM | 280.5 µM | 135.6 µM | 277.3 µM | 130.8 µM | 287.2 µM | 137.9 µM | 286.9 µM | 140.2 µM | stable | about 0.3 mM | – | –
CCCN1CCCC[C@H]1C(=O)Nc1c(C)cccc1C [Ropivacaine free base, reference compound] | – | – | – | – | – | – | – | – | – | – | – | – | – | – | – | – | 1360 µM (≈ 373 µg/mL) | –
CCCCN1CCCCC1C(=O)Nc1c(C)cccc1C.CCCCN1CCCCC1C(=O)Nc1c(C)cccc1C.O=C(O)c1cc2ccccc2c(Cc2c(O)c(C(=O)O)cc3ccccc23)c1O [bis(bupivacaine) pamoate] | – | – | – | – | – | – | – | – | – | – | – | – | – | – | – | – | – | 300 µM
